Test results from US4906658A, “Fluoro-sulfones” (Merck Frosst Canada, Inc., priority 1987, dated 1990).
“And” between values parts separate entries of the source, which are not always exact repeats. Identical values can stand only once. Like-named read-outs stand apart in the source and are kept apart here.

Experiments:
[1] = system: antigen (egg albumin)-induced continuous dyspnea in inbred asthmatic rats; settings: 3 μg/kg i.v. before challenge; cited from earlier work
[2] = system: antigen (egg albumin)-induced continuous dyspnea in inbred asthmatic rats; assay: Asthmatic Rat Assay: duration of continuous dyspnea after aerosolized antigen challenge in sensitized inbred asthmatic rats; type: in vivo; settings: for ED50: Rattus norvegicus, po, read-out: ED50 p.o. (dose which would inhibit the duration of symptoms by 50%)
Excerpt: Sensitized inbred "asthmatic rats" challenged with aerosolized antigen respond with symptoms of continuous dyspnea which is partly mediated by serotonin. […] These rats differ from normal rats in that they have non-specific bronchial hyperreactivity to a number of bronchoconstrictor agents (Brunet et al, J. Immunol., 131, 434 (1983)).
Pretreatment with drugs is used to measure the decrease of the duration of continuous dyspnea and, at higher doses, to eliminate the response (piechuta et a1, Immunology, 38, 385 (1979)).
(1) Animals: Male and female inbred asthmatic rats were used between 10-12 weeks of age. Their weights ranged from 190-250 gm (females) and 260-400 gm (males). Rats were matched by sex and littermates between the various treatment groups. Animals were starved overnight. Water was supplied ad lib.
(2) Materials: Egg albumin (EA), grade V, crystallized and lyophilized was obtained from Sigma Chemical Co., St. Louis. Aluminum hydroxide was obtained from the Reheis Chemical Company, Chicago. Methysergide Bimaleate was supplied by Sandoz Ltd., Basel, Switzerland. Serotonin creatinine sulfate was obtained from Calbiochem-Behring Corp., La Jolla, Calif.
(3) Apparatus: The challenge and subsequent respiratory recordings were carried out in a clear
plastic box with internal dimensions 10×6×4 inches. The top of the box was removable; in use, it was held firmly in place by four clamps and an airtight seal was maintained by a soft rubber gasket. […] A Fleisch No. 0000 pneumotachograph was inserted into one end of the box and coupled to a Grass volumetric pressure transducer (PT5-A) which was then connected to a Beckman Type R Dynograph through appropriate couplers. While aerosolizing the antigen, the outlets were open and the pneumotachograph was isolated from the chamber. The outlets were closed and the pneumotachograph and the chamber were connected during the recordings of the respiratory patterns. For challenge, 2 mL of a 3% solution of antigen in saline was placed into each nebulizer and the aerosol was generated with air from a small Potter diaphragm pump operating at 10 psi and a flow of 8 liters/min.
(4) Procedure: Rats were sensitized by injecting (s.c.) 1 mL of suspension containing 1 mg albumin (EA) and 200 mg aluminum hydroxide in saline. They were used between days 12 and 24 post sensitization. Rats were exposed to aerosol of 3% EA in saline for exactly 1 minute, then their respiratory profiles were recorded for a further 30 minutes. The duration of continuous dyspnea was measured from the respiratory recordings.
Compounds were generally administered either orally 1, 2, 4 or 6 hours prior to challenge or intravenously 2 minutes prior to challenge. Dose volume for oral treatments was 10 mL/kg and for i.v. treatments 1 mL/kg. Compounds were dissolved in distilled water. Methysergide bimaleate was dissolved in saline and administered intravenously at dose of 3 μg/kg 5 minutes before antigen challenge.
The sensitivity of various drug treatments were determined in terms of the decrease in duration of dyspnea in comparison with a group of vehicle treated controls. Usually, a compound was evaluated at a series of doses and an ED50 value was determined. This was defined as the dose (mg/kg) which would inhibit the duration of symptoms by 50%.

[3] = system: leukotrienes C4, D4 and E4 and SRS-A; assay: antagonism of leukotrienes C4, D4 and E4 and of SRS-A; settings: versus closely related compounds within the scope of EP No. 104,885
Excerpt: The compounds of Formula I are active as antagonists of SRS-A and of leukotriene. The activity of the compounds of Formula I can be detected and evaluated by methods known in the art. See, for example, Kadin, U.S. Pat. No. 4,296,129.

[4] = 1.5 mg/kg p.o., 1 hour before challenge

SMILES: CC[C@@H](CO)NC(=O)[C@@H]1C=C2c3cccc4c3c(cn4C)C[C@H]2N(C)C1 [methysergide]
- blocking of the serotonin component of continuous dyspnea [1]: completely blocked

SMILES: CCCc1c(OCCCS(=O)(=O)c2ccc([C@H](O)[C@@H](C)CC(=O)O)cc2)ccc(C(C)=O)c1O (relative stereo) [Ex. 77, (4R*,3S*)-4-[4-(3-(4-acetyl-3-hydroxy-2-propylphenoxy)propylsulfonyl)phenyl]-4-hydroxy-3-methybutanoic acid, reference compound]
- Inhib. of Dyspnea ([2]; 0.15 mg/kg p.o., 1 hour before challenge): 33%
- Inhib. of Dyspnea ([2]; 0.5 mg/kg p.o., 1 hour before challenge): 29%
- Inhib. of Dyspnea [2, 4]: 29%
- Inhib. of Dyspnea ([2]; 5.0 mg/kg p.o., 1 hour before challenge): 44%
- ED50 ([2]; 1 hr before challenge): > 5 mg/kg

SMILES: CCCc1c(O)c(C(C)=O)cc(F)c1OCCCS(=O)(=O)c1ccc([C@H](O)[C@@H](C)CC(=O)O)cc1 (relative stereo) [Compound I, (4R*,3S*)-4-[4-(3-(4-acetyl-6-fluoro-3-hydroxy-2-propylphenoxy)propyl-sulfonyl)phenyl]-4-hydroxy-3-methylbutanoic acid]
- Inhib. of Dyspnea ([2]; 0.05 mg/kg p.o., 2 hours before challenge): 40%
- Inhib. of Dyspnea ([2]; 0.15 mg/kg p.o., 2 hours before challenge): 48%
- Inhib. of Dyspnea ([2]; 0.5 mg/kg p.o., 2 hours before challenge): 57%
- Inhib. of Dyspnea [2, 4]: 55%
- Inhib. of Dyspnea ([2]; 1.5 mg/kg p.o., 2 hours before challenge): 59% and 65%
- Inhib. of Dyspnea ([2]; 1.5 mg/kg p.o., 4 hours before challenge): 65%
- Inhib. of Dyspnea ([2]; 1.5 mg/kg p.o., 6 hours before challenge): 63%
- ED50 ([2]; 2 hrs before challenge): 0.21 mg/kg
- absorption by the oral route ([2]; judged from activity p.o. in the Asthmatic Rat Assay): good absorption by the oral route
- duration of action ([2]; p.o., in words): satisfactory duration of action
- potency ([2]; p.o., in words): high potency
- activity compared with the closely related reference compounds ([2]; versus Ex. 77 and Ex. 93 of EP 104,885, p.o.): significantly more active than the closely related reference compounds
- potency as antagonists of leukotrienes C4, D4 and E4 and of SRS-A [3]: unexpectedly much more potent

SMILES: CCCc1c(O)c(C(C)=O)cc(F)c1OCCCSc1ccc([C@H](O)[C@@H](C)CC(=O)O)cc1 (relative stereo) [Ex. 93, (4R*,3S*)-4-[4-(3-(4-acetyl-6-fluoro-3-hydroxy-2-propylphenoxy)propylthio)phenyl]-4-hydroxy-3-methylbutanoic acid, reference compound]
- Inhib. of Dyspnea [2, 4]: 26%
